This is an account of results in patent US20260000684A1, “CANNABINOID COMPOSITIONS AGAINST CANCER, THEIR IDENTIFICATION AND PERSONALIZATION OF CANNABIS-BASED CANCER THERAPY” (UNIVERZA V MARIBORU, priority 2022, published 2026).

The test system of one assay is HCT116. The assay can be described thus: Cell viability/proliferation. Format: cell-based. The note with it: FIG. 10, preliminary analysis. The source says:
(§1) Example 5: In a preliminary analysis, the inventors investigated the effect of 16 cannabinoid compounds (Δ9-THCV-C3, Δ9-THCVA-C3 A, Δ9-THCA-C5 A, Δ9-THC-C5, Δ8-THC-C5, CBN-C5, CBL-C5, CBLA-C5 A, (E)-CBG-C5, (E)-CBGA-C5 A, CBD-C5, CBDV-C3, CBDVA-C3, CBDA-C5, CBC-C5, and CBCA-C5 A) on cell viability/proliferation in two colorectal carcinoma cell lines (HCT116 and CaCo2) (FIG. 10).

In the next assay the test system is CaCo2. The assay can be described thus: Cell viability/proliferation. Format: cell-based. The note with it: FIG. 10, preliminary analysis.
Excerpt: as §1

Assay [1] concerns human A375, SK-MEL-28, and CHL-1 melanoma cell lines. The following applies: A375, SK-MEL-28, CHL-1; Armstrong et al.; cited from earlier work.
In assay [2] the test system is melanoma cell lines (COLO38 and OCM-1). The following applies: CB2 and CB1 expressing melanoma cell lines COLO38 and OCM-1; cited from earlier work.

On to `CCCCCc1cc(O)c2c(c1)OC(C)(C)c1ccc(C)cc1-2` [CBN, cannabinol], for which the “effect in reducing cell viability” value in the assay with HCT116 and in the assay on CaCo2 was “strongest effect in reducing cell viability” throughout.
Consider `CCCCCc1cc(O)c2c(c1)OC(C)(C)[C@@H]1CCC(C)=C[C@@H]21` [Δ9THC, Δ^9-tetrahydrocannabinol, reference compound], for which, in assay [1], the “effect of treatment on melanoma cell lines” value is “activation of autophagy, loss of cell viability, and activation of apoptosis”. The “effect in reducing cell viability” value with HCT116 and in the assay with CaCo2 was “strongest effect in reducing cell viability” each time.
As to `CCCCCc1cc(O)c2c(c1)OC(C)(CCC=C(C)C)C=C2` (racemic) [CBC, (±)-cannabichromene], the “effect in reducing cell viability” value with HCT116 and with CaCo2 was “strongest effect in reducing cell viability” throughout.
Consider `CCCCCc1cc(O)c(C/C=C(\C)CCC=C(C)C)c(O)c1` [CBG, cannabigerol], for which the “effect in reducing cell viability” value with HCT116 and in the assay with CaCo2 was “strongest effect in reducing cell viability” in each case.
As for “(−)-cannabidiol [CBD, reference compound]”, the “effect in reducing cell viability” value in the assay on HCT116 and with CaCo2 was “strongest effect in reducing cell viability” in each case.
In the case of `CCCCCc1cc(O)c2c(c1)OC(C)(C)[C@@H]1CC=C(C)C[C@@H]21` (relative stereo) [Δ8THC, (−)-Δ^8-trans-(6aR,10aR)-Δ^8-tetrahydrocannabinol], the “effect in reducing cell viability” value with HCT116 and in the assay with CaCo2 was “strongest effect in reducing cell viability” in each case.
For the compound `Cc1c(C(=O)c2cccc3ccccc23)c2cccc3c2n1[C@H](CN1CCOCC1)CO3` [WIN55,212-2], the viability entry in assay [2] was “reduce viability in a CB1/CB2-independent manner”.
